Data published in patent publication US20110178062A1, “INDOLE AND BENZOTHIOPHENE COMPOUNDS AS MODULATORS OF THE HISTAMINE H3 RECEPTOR” (priority 2007, published 2011).

Tests used:
[1] = target: T1, cloned human H3 receptors, stably expressed in SK-N-MC cells (Homo sapiens, UniProt Q9Y5N1); test: H3 Receptor Binding (Human); conditions: average of the results obtained
T1 construct: expressed in transfected cells; host or cells: SK-N-MC cells
Experimental: Binding of compounds to the cloned human H3 receptors, stably expressed in SK-N-MC cells, was performed as described by Barbier, A. J. et al. (Br. J. Pharmacol. 2004, 143(5), 649-661). Data for compounds tested in this assay are presented in Table 1 as an average of the results obtained.

Rat H3 = Rat H3 (Rattus norvegicus, UniProt Q9QYN8); test: H3 Receptor Binding (Rat), rat brain membranes, N-[3H]-α-methylhistamine; conditions: rat brain without cerebellum; 0.8 nM N-[3H]-α-methylhistamine; average of results
Chain of Rat H3 (Q9QYN8 1-397 isoform Q9QYN8-3): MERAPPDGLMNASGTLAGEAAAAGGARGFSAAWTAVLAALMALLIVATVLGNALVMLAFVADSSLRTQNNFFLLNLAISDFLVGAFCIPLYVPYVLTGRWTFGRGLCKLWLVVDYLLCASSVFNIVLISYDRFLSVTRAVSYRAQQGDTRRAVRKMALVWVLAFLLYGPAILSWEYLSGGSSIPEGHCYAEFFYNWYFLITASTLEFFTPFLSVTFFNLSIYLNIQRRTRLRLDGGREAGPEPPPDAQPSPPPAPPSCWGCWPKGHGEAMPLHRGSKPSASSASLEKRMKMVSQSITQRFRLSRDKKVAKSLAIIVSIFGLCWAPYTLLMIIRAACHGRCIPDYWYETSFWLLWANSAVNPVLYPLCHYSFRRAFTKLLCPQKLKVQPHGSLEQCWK
Experimental: A rat brain without cerebellum (Zivic Laboratories Inc., Pittsburgh, Pa.) was homogenized in 50 mM Tris-HCl/5 mM EDTA and centrifuged at 1,000 rpm for 5 min. The supernatant was removed and recentrifuged at 15,000 rpm for 30 min. Pellets were rehomogenized in 50 mM Tris/5 mM EDTA (pH 7.4). Membranes were incubated with 0.8 nM N—[^3H]-α-methylhistamine plus/minus test compounds for 60 min at 25° C. and harvested by rapid filtration over GF/C glass fiber filters (pretreated with 0.3% polyethylenimine) followed by four washes with buffer. Nonspecific binding was defined in the presence of 100 μM histamine. Inhibitory concentration (responsible for 50% inhibition of maximal effect, IC50) values were determined by a single site curve-fitting program (GraphPad, San Diego, Calif.) and converted to Ki values based on a N—[^3H]-α-methylhistamine dissociation constant (Kd) of 0.8 nM. Data for compounds tested in this assay are presented in Table 2 as an average of the results obtained.

human H3 receptor = target: T2, human H3 receptor (Homo sapiens, UniProt Q9Y5N1); test: Cyclic AMP Accumulation, SK-N-MC reporter cells (human H3); format: cell-based; conditions: SK-N-MC cells expressing reporter construct and human H3 receptor; read-out: Human pA2 (converted)
T2 construct: expressed in transfected cells; host or cells: SK-N-MC cells
T2 sequence (Q9Y5N1 whole entry): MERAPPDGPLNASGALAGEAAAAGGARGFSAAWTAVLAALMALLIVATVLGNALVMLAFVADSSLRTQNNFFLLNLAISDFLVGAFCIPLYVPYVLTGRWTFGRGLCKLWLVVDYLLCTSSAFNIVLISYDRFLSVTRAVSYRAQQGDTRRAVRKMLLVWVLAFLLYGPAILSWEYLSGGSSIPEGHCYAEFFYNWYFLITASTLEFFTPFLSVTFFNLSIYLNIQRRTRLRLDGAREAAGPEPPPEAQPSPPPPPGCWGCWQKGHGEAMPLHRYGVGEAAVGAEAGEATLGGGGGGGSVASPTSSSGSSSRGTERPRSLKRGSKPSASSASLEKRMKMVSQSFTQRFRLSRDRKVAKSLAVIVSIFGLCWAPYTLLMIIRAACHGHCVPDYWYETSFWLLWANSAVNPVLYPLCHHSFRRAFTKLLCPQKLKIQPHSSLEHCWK
Source text: Sublines of SK-N-MC cells were created that expressed a reporter construct and either the human or rat H3 receptor. The pA2 values were obtained as described by Barbier et al. (2004). Data for compounds tested in these assays are presented in Table 3, as an average of the results obtained (NT=not tested).

T1 sequence (Q9Y5N1 whole entry): as above

Row | Compound | Ki [1] | Ki (Rat H3) | Kb (human H3 receptor)
1 | CC(C)N1CCN(C(=O)c2ccc3c(CN4CCOCC4)cn(C)c3c2)CC1 [Example 1, (4-Isopropyl-piperazin-1-yl)-(1-methyl-3-morpholin-4-ylmethyl-1H-indol-6-yl)-methanone] | 2 nM | 98 nM | 3.72 nM
2 | Cn1cc(CN2CCOCC2)c2ccc(C(=O)N3CCN(C4CCC4)CC3)cc21 [Example 3, (4-Cyclobutyl-piperazin-1-yl)-(1-methyl-3-morpholin-4-ylmethyl-1H-indol-6-yl)-methanone] | 1 nM |  | 0.501 nM
3 | O=C(c1ccc2c(CN3CCOCC3)c[nH]c2c1)N1CCN(C2CCC2)CC1 [Example 6, (4-Cyclobutyl-piperazin-1-yl)-(3-morpholin-4-ylmethyl-1H-indol-6-yl)-methanone] | 1 nM |  | 0.155 nM
4 | CC(C)N1CCN(C(=O)c2cccc3c(CN4CCOCC4)c[nH]c23)CC1 [Example 20, (4-Isopropyl-piperazin-1-yl)-(3-morpholin-4-ylmethyl-1H-indol-7-yl)-methanone] | 10 nM |  | 8.13 nM
5 | CC(C)N1CCN(C(=O)c2ccc3c(CN4CCCCC4)cn(S(C)(=O)=O)c3c2)CC1 [Example 25, (4-Isopropyl-piperazin-1-yl)-(1-methanesulfonyl-3-piperidin-1-ylmethyl-1H-indol-6-yl)-methanone] | 3 nM |  | 3.09 nM
6 | CC(C)N1CCCN(C(=O)c2ccc3[nH]cc(CN4CCCCC4)c3c2)CC1 [Example 34, (4-Isopropyl-[1,4]diazepan-1-yl)-(3-piperidin-1-ylmethyl-1H-indol-5-yl)-methanone] | 4 nM | 133 nM | 
7 | CC(C)N1CCN(C(=O)c2ccc3c(CN4CCCC(CO)C4)c[nH]c3c2)CC1 (centres unmarked) [Example 44, [3-(3-Hydroxymethyl-piperidin-1-ylmethyl)-1H-indol-6-yl]-(4-isopropyl-piperazin-1-yl)-methanone] | 2 nM |  | 1.07 nM
8 | CC(C)N1CCN(C(=O)c2ccc3c(CN4CCN(c5ccccc5)CC4)c[nH]c3c2)CC1 [Example 45, (4-Isopropyl-piperazin-1-yl)-[3-(4-phenyl-piperazin-1-ylmethyl)-1H-indol-6-yl]-methanone] | 2 nM |  | 1.82 nM
9 | CC(C)N1CCN(C(=O)c2ccc3c(CN4CCC(c5ccccc5)CC4)c[nH]c3c2)CC1 [Example 57, (4-Isopropyl-piperazin-1-yl)-[3-(4-phenyl-piperidin-1-ylmethyl)-1H-indol-6-yl]-methanone] | 1 nM |  | 1.17 nM
10 | O=C(c1ccc2c(CN3CCN(C4CCCC4)CC3)c[nH]c2c1)N1CCC(c2ccccc2)CC1 [Example 86, [3-(4-Cyclopentyl-piperazin-ylmethyl)-1H-indol-6-yl]-(4-phenyl-piperidin-1-yl)-methanone] | 27 nM |  | 
11 | CN(C)C1CCN(Cc2c[nH]c3cc(C(=O)N4CCC(c5ccccc5)CC4)ccc23)C1 (centres unmarked) [Example 87, [3-(3-Dimethylamino-pyrrolidin-1-ylmethyl)-1H-indol-6-yl]-(4-phenyl-piperidin-1-yl)-methanone] | 20 nM |  | 
12 | O=C(c1ccc2c(CN3CCC(N4CCCCC4)CC3)c[nH]c2c1)N1CCCCCC1 [Example 90, Azepan-1-yl-(3-[1,4′]bipiperidinyl-1′-ylmethyl-1H-indol-6-yl)-methanone] | 21 nM |  | 
13 | CN(C)C1CCN(Cc2c[nH]c3cc(C(=O)N4CCCCCC4)ccc23)C1 (centres unmarked) [Example 92, Azepan-1-yl-[3-(3-dimethylamino-pyrrolidin-1-ylmethyl)-1H-indol-6-yl]-methanone] | 15 nM |  | 
14 | CN(C)C1CCN(Cc2c[nH]c3cc(C(=O)N4CCC(CO)CC4)ccc23)C1 (centres unmarked) [Example 94, [3-(3-Dimethylamino-pyrrolidin-1-ylmethyl)-1H-indol-6-yl]-(4-hydroxymethyl-piperidin-1-yl)-methanone] | 27 nM |  | 
15 | CN(C)C1CCN(Cc2c[nH]c3cc(C(=O)N4CCC(CO)CC4)ccc23)CC1 [Example 96, [3-(4-Dimethylamino-piperidin-1-ylmethyl)-1H-indol-6-yl]-(4-hydroxymethyl-piperidin-1-yl)-methanone] | 439 nM |  | 
16 | O=C(c1ccc2c(CN3CCN(C4CCCC4)CC3)c[nH]c2c1)N1CCC(Cc2ccccc2)CC1 [Example 99, (4-Benzyl-piperidin-1-yl)-[3-(4-cyclopentyl-piperazin-1-ylmethyl)-1H-indol-6-yl]-methanone] | 28 nM |  | 
17 | CN(C)C1CCN(Cc2c[nH]c3cc(C(=O)N4CCC(Cc5ccccc5)CC4)ccc23)CC1 [Example 100, (4-Benzyl-piperidin-1-yl)-[3-(4-dimethylamino-piperidin-1-ylmethyl)-1H-indol-6-yl]-methanone] | 233 nM |  | 
18 | CN(C)C1CCN(Cc2c[nH]c3cc(C(=O)N4CCC(Cc5ccccc5)CC4)ccc23)C1 (centres unmarked) [Example 101] | 9 nM |  | 
19 | CC(C)N1CCN(C(=O)c2ccc3scc(CN4CCCCC4)c3c2)CC1 [Example 102, (4-Isopropyl-piperazin-1-yl)-(3-piperidin-1-ylmethyl-benzo[b]thiophen-5-yl)-methanone] | 17 nM | 228 nM | 
20 | O=C(c1ccc2scc(CN3CCCCC3)c2c1)N1CCN(C2CCC2)CC1 [Example 103, (4-Cyclobutyl-piperazin-1-yl)-(3-piperidin-1-ylmethyl-benzo[b]thiophen-5-yl)-methanone] | 7 nM |  | 
21 | O=C(c1ccc2scc(C(=O)N3CCCCC3)c2c1)N1CCN(C2CCC2)CC1 [Example 105, [5-(4-Cyclobutyl-piperazine-1-carbonyl)-benzo[b]thiophen-3-yl]-piperidin-1-yl-methanone] | 215 nM |  | 
22 | O=C(c1ccc2c(CN3CCC(N4CCCCC4)CC3)c[nH]c2c1)N1CCC(Cc2ccccc2)CC1 [Example 106, (4-Benzyl-piperidin-1-yl)-(3-[1,4′]bipiperidinyl-1′-ylmethyl-1H-indol-6-yl)-methanone] | 70 nM |  | 
23 | O=C(c1ccc2c(CN3CCN(C4CCC4)CC3)c[nH]c2c1)N1CCC(Cc2ccccc2)CC1 [Example 107, (4-Benzyl-piperidin-1-yl)-[3-(4-cyclobutyl-piperazin-1-ylmethyl)-1H-indol-6-yl]-methanone] | 12 nM |  | 

Continued, values first:

Row | Ki [1] | Ki (Rat H3) | Kb (human H3 receptor) | Compound
24 | 2 nM |  | 0.575 nM | O=C(c1cccc2c(CN3CCCCC3)c[nH]c12)N1CCN(C2CCC2)CC1 [Example 23, (4-Cyclobutyl-piperazin-1-yl)-(3-piperidin-1-ylmethyl-1H-indol-7-yl)-methanone]
25 | 11 nM | 438 nM |  | O=C(c1ccc2c(CN3CCN(C4CCC4)CC3)c[nH]c2c1)N1CCCCC1 [Example 29, [3-(4-Cyclobutyl-piperazin-1-ylmethyl)-1H-indol-6-yl]-piperidin-1-yl-methanone]
26 |  | 2 nM |  | CC(C)N1CCN(C(=O)c2ccc3c(CN4CCCC4)c[nH]c3c2)CC1 [Example 58, (4-Isopropyl-piperazin-1-yl)-(3-pyrrolidin-1-ylmethyl-1H-indol-6-yl)-methanone]
27 | 186 nM |  |  | CN(C)C1CCN(Cc2c[nH]c3cc(C(=O)N4CCC(c5ccccc5)CC4)ccc23)CC1 [Example 88, [3-(4-Dimethylamino-piperidin-1-ylmethyl)-1H-indol-6-yl]-(4-phenyl-piperidin-1-yl)-methanone]
28 | 31 nM |  |  | O=C(c1ccc2c(CN3CCCN(C4CCC4)CC3)c[nH]c2c1)N1CCC(c2ccccc2)CC1 [Example 89, [3-(4-Cyclobutyl-[1,4]diazepan-1-ylmethyl)-1H-indol-6-yl]-(4-phenyl-piperidin-1-yl)-methanone]
29 | 38 nM |  |  | O=C(c1ccc2c(CN3CCN(C4CCC4)CC3)c[nH]c2c1)N1CCCCCC1 [Example 93, Azepan-1-yl-[3-(4-cyclobutyl-piperazin-1-ylmethyl)-1H-indol-6-yl]-methanone]
30 | 42 nM |  |  | CC(C)N1CCCN(Cc2c[nH]c3cc(C(=O)N4CCCCCC4)ccc23)CC1 [Example 95, Azepan-1-yl-[3-(4-isopropyl-[1,4]diazepan-1-ylmethyl)-1H-indol-6-yl]-methanone]
31 | 59 nM |  |  | CC(C)N1CCCN(Cc2c[nH]c3cc(C(=O)N4CCC(c5ccccc5)CC4)ccc23)CC1 [Example 97, [3-(4-Isopropyl-[1,4]diazepan-1-ylmethyl)-1H-indol-6-yl]-(4-phenyl-piperidin-1-yl)-methanone]
32 | 34 nM |  |  | O=C(c1ccc2c(CN3CCCN(C4CCC4)CC3)c[nH]c2c1)N1CCCCCC1 [Example 98, Azepan-1-yl-[3-(4-cyclobutyl-[1,4]diazepan-1-ylmethyl)-1H-indol-6-yl]-methanone]
33 | 772 nM |  |  | CC(C)N1CCN(C(=O)c2ccc3scc(C(=O)N4CCCCC4)c3c2)CC1 [Example 104, [5-(4-Isopropyl-piperazine-1-carbonyl)-benzo[b]thiophen-3-yl]-piperidin-1-yl-methanone]
34 | 16 nM |  |  | O=C(c1ccc2c(CN3CCCN(C4CCC4)CC3)c[nH]c2c1)N1CCC(Cc2ccccc2)CC1 [Example 108, (4-Benzyl-piperidin-1-yl)-[3-(4-cyclobutyl-[1,4]diazepan-1-ylmethyl)-1H-indol-6-yl]-methanone]
